# Paper PMC8225959, “Clickable Radiocomplexes With Trivalent Radiometals for Cancer Theranostics: In vitro and in vivo Studies” (Frontiers in Medicine, 2021)
# What was measured:
# [1] = In vitro stability of [111In]In-radiocomplexes in cell culture media, human serum and PBS at 37 °C (HPLC); type: in vitro ADME; conditions: for stability in PBS: 24 h at 37°C; for level of degradation in CCM / stability in CCM: cell culture media; for level of degradation in CCM / stability in CCM / stability in HS / compound degraded in HS: 37°C; for level of degradation in CCM: after 24 h; for stability in CCM: first 4 h of incubation; for stability in HS / compound degraded in HS: human serum; for compound degraded in HS: after 4 h of incubation
# Protocol: (§1) Given the limited effect of the pegylated linker on the plasmatic half-life, we focused our successive in vitro stability studies and lipophilicity measurements on the two non-pegylated derivatives [^111In]In-DOTA-Tz and [^111In]In-DOTAGA-Tz. The lipophilicity was evaluated by determination of their partition coefficient log Po/w using the shake-flask method. […] In HS the stability was very good up to 2 h of incubation, but after 4 h of incubation, the degradation started to be quite important with 50 and 30% of the compound degraded for [^111In]In-DOTA-Tz and [^111In]In-DOTAGA-Tz, respectively. […] Taken together, excellent stability of the two [^111In]In-radiocomplexes was observed both in CCM and HS at 37°C for incubation times up to 2 h.
# [111In]In-Radiocomplexes: In vitro and in vivo stability
# radiolabelled compound dissolved in different media. For the evaluation of the stability in PBS, Cell
# times the volume of the desired medium.
# The radiocomplexes incubated in Human
# The urine samples were centrifuged
# during six days by ITLC analysis.
# [2] = In vivo stability: HPLC analysis of urine of injected mice; conditions: mouse urine, 1 h p.i.
# PC3 xenografts = experiment: In vivo click (pre-targeting) biodistribution of [111In]In-DOTA-Tz in PC3-xenografts bearing mice pretargeted with TCO-PEG4-AR; set-up: Biodistribution: Blood: dose or concentration left out as unconfirmed; conditions: 1 h p.i.
# Protocol: from whole animal body. Blood samples were taken by cardiac puncture at sacrifice. Tissue samples
# Biodistribution in PC3 bearing mice
# Membrane Matrix (BD Sciences) under anaesthesia with 2% isoflurane. The animals were kept under
# volume of approximate 390 ± 190 mm3. Animals were allocated into treatment groups using a complete
# carried out on groups of 8 mice (n = 4).
# At appropriate time points (15 min,
# Immediately after injection,
# DOTA-Tz (0.1mL, 50 – 75 µCi µCi).
# assumed to be due to total excretion. The animals were weighed and dissected. Then, tissues of interest
# radioactivity and weighted.
# [3] = Lipophilicity, octanol-water partition coefficient by shake-flask method; type: physicochemical; conditions: 1-octanol / PBS pH 7.4
# Protocol: as §1, with “h. […]” for “h.”
# Lipophilicity Determination
# After phase separation, aliquots
# [4] = Biodistribution of [111In]In-radiocomplexes in healthy mice; type: in vivo
# Protocol: We performed a biodistribution study of the four [^111In]In-radiocomplexes in healthy mice to determine the clearance rate from systemic blood circulation and the tissue/organ distribution over time. […] The urinary tract was identified as the main excretory pathway since the highest % I.D./g values were found in the kidneys for all the radiocomplexes, associated to rapid radioactivity excretion both at 15 min and 1 h p.i. […] page 9: from whole animal body. Blood samples were taken by cardiac puncture at sacrifice. […] The animals were kept under […] volume of approximate 390 ± 190 mm3. […] […] carried out on groups of 8 mice (n = 4). […] The animals were weighed and dissected.
# [5] = In Vivo Click reaction: PC3 xenograft mice pretargeted with TCO-PEG4-AR (4 h prior administration, 1 nM)
# [6] = In Vivo Click reaction: PC3 xenograft mice pretargeted with TCO-PEG4-AR (4 h prior administration, 1 nM), listed as [^111In]In-DOTA-Tz
# [7] = in vivo click chemistry, pretargeted with TCO-PEG4-AR
structure (smiles),measurement,setting,value
O=C([O-])CN1CCN(CC(=O)[O-])CCN(CC(=O)NCc2ccc(-c3nncnn3)cc2)CCN(CC(=O)[O-])CC1.[111In+3] [[111In]In-DOTA-Tz],stability in PBS,[1],> 85%
same,level of degradation in CCM,[1],70%
same,stability in CCM,[1],very good stability
same,stability in HS,[1]; 24 h of incubation,almost completely degraded
same,compound degraded in HS,[1],50%
same,stability in HS,[1]; up to 2 h of incubation,very good
same,in vivo stability / metabolization (urine HPLC),[2],eliminated without undergoing any metabolization or degradation
same,Biodistribution: Blood,PC3 xenografts; In Vivo Click reaction: PC3 xenograft mice pretargeted with TCO-PEG4-AR (4 h prior administration),0.28 ± 0.09 % I.D./g
same,Biodistribution: Bone,PC3 xenografts; [5],0.21 ± 0.09 % I.D./g
same,Biodistribution: Heart,PC3 xenografts; [5],0.12 ± 0.04 % I.D./g
same,Biodistribution: Intestine,PC3 xenografts; [5],0.12 ± 0.04 % I.D./g
same,Biodistribution: Kidney,PC3 xenografts; [5],1.5 ± 0.3 % I.D./g
same,Biodistribution: Liver,PC3 xenografts; [5],0.3 ± 0.1 % I.D./g
same,Biodistribution: Lung,PC3 xenografts; [5],0.26 ± 0.06 % I.D./g
same,Biodistribution: Muscle,PC3 xenografts; [5],0.15 ± 0.11 % I.D./g
same,Biodistribution: Spleen,PC3 xenografts; [5],0.11 ± 0.04 % I.D./g
same,Biodistribution: Stomach,PC3 xenografts; [5],0.09 ± 0.06 % I.D./g
same,Biodistribution: Tumour,PC3 xenografts; [5],0.78 ± 0.54 % I.D./g
same,Biodistribution: Kidney,PC3 xenografts; [6],1.5 % I.D./g
same,Biodistribution: Tumour,PC3 xenografts; [6],0.78 % I.D./g
same,tumor/blood ratio,PC3 xenografts; [7],2.8
same,tumor/muscle ratio,PC3 xenografts; [7],5.2
same,log Po/w,[3],−1.60 ± 0.13
same,Biodistribution: Blood,[4]; 15 min p.i.,2.5 ± 1.4 % I.D./g
same,Biodistribution: Bone,[4]; 15 min p.i.,1.0 ± 0.7 % I.D./g
same,Biodistribution: Heart,[4]; 15 min p.i.,0.8 ± 0.5 % I.D./g
same,Biodistribution: Intestine,[4]; 15 min p.i.,0.3 ± 0.2 % I.D./g
same,Biodistribution: Kidney,[4]; 15 min p.i.,5.2 ± 3.3 % I.D./g
same,Biodistribution: Liver,[4]; 15 min p.i.,2.3 ± 0.8 % I.D./g
same,Biodistribution: Lung,[4]; 15 min p.i.,1.8 ± 0.9 % I.D./g
same,Biodistribution: Muscle,[4]; 15 min p.i.,1.1 ± 0.9 % I.D./g
same,Biodistribution: Pancreas,[4]; 15 min p.i.,0.4 ± 0.2 % I.D./g
same,Biodistribution: Spleen,[4]; 15 min p.i.,0.8 ± 0.2 % I.D./g
same,Biodistribution: Stomach,[4]; 15 min p.i.,0.3 ± 0.2 % I.D./g
same,Excretion,[4]; 15 min p.i.,58.3 ± 25.3 % I.D.
same,Biodistribution: Blood,[4]; 1 h p.i.,0.32 ± 0.07 % I.D./g
same,Biodistribution: Bone,[4]; 1 h p.i.,0.12 ± 0.03 % I.D./g
same,Biodistribution: Heart,[4]; 1 h p.i.,0.11 ± 0.02 % I.D./g
same,Biodistribution: Intestine,[4]; 1 h p.i.,0.05 ± 0.01 % I.D./g
same,Biodistribution: Kidney,[4]; 1 h p.i.,1.6 ± 0.3 % I.D./g
same,Biodistribution: Liver,[4]; 1 h p.i.,0.29 ± 0.09 % I.D./g
same,Biodistribution: Lung,[4]; 1 h p.i.,0.29 ± 0.03 % I.D./g
same,Biodistribution: Muscle,[4]; 1 h p.i.,0.08 ± 0.01 % I.D./g
same,Biodistribution: Pancreas,[4]; 1 h p.i.,0.06 ± 0.01 % I.D./g
same,Biodistribution: Spleen,[4]; 1 h p.i.,0.09 ± 0.01 % I.D./g
same,Biodistribution: Stomach,[4]; 1 h p.i.,0.09 ± 0.05 % I.D./g
same,Excretion,[4]; 1 h p.i.,91.8 ± 1.0 % I.D.
same,Excretion,"[4]; 1 h p.i., listed as [^111In]In-DOTA-Tz",above 90 % I.D.
O=C([O-])CN1CCN(CC(=O)[O-])CCN(C(CCC(=O)NCc2ccc(-c3nncnn3)cc2)C(=O)[O-])CCN(CC(=O)[O-])CC1.[111In+3] (centres unmarked) [[111In]In-DOTAGA-Tz],stability in PBS,[1],> 85%
same,level of degradation in CCM,[1],70%
same,stability in CCM,[1],very good stability
same,stability in HS,[1]; 24 h of incubation,almost completely degraded
same,compound degraded in HS,[1],30%
same,stability in HS,[1]; up to 2 h of incubation,very good
same,in vivo stability / metabolization (urine HPLC),[2],overall low degree of metabolization
same,log Po/w,[3],−3.44 ± 0.29
same,Biodistribution: Blood,[4]; 15 min p.i.,3.2 ± 0.7 % I.D./g
same,Biodistribution: Bone,[4]; 15 min p.i.,1.2 ± 0.2 % I.D./g
same,Biodistribution: Heart,[4]; 15 min p.i.,0.9 ± 0.2 % I.D./g
same,Biodistribution: Intestine,[4]; 15 min p.i.,0.4 ± 0.1 % I.D./g
same,Biodistribution: Kidney,[4]; 15 min p.i.,7.2 ± 0.4 % I.D./g
same,Biodistribution: Liver,[4]; 15 min p.i.,1.6 ± 0.4 % I.D./g
same,Biodistribution: Lung,[4]; 15 min p.i.,1.9 ± 0.4 % I.D./g
same,Biodistribution: Muscle,[4]; 15 min p.i.,0.9 ± 0.2 % I.D./g
same,Biodistribution: Pancreas,[4]; 15 min p.i.,0.6 ± 0.1 % I.D./g
same,Biodistribution: Spleen,[4]; 15 min p.i.,0.6 ± 0.1 % I.D./g
same,Biodistribution: Stomach,[4]; 15 min p.i.,0.6 ± 0.3 % I.D./g
same,Excretion,[4]; 15 min p.i.,62.7 ± 1.5 % I.D.
same,Biodistribution: Blood,[4]; 1 h p.i.,1.1 ± 0.3 % I.D./g
same,Biodistribution: Bone,[4]; 1 h p.i.,0.5 ± 0.1 % I.D./g
same,Biodistribution: Heart,[4]; 1 h p.i.,0.4 ± 0.1 % I.D./g
same,Biodistribution: Intestine,[4]; 1 h p.i.,0.26 ± 0.09 % I.D./g
same,Biodistribution: Kidney,[4]; 1 h p.i.,3.6 ± 1.0 % I.D./g
same,Biodistribution: Liver,[4]; 1 h p.i.,1.0 ± 0.3 % I.D./g
same,Biodistribution: Lung,[4]; 1 h p.i.,0.8 ± 0.2 % I.D./g
same,Biodistribution: Muscle,[4]; 1 h p.i.,0.27 ± 0.07 % I.D./g
same,Biodistribution: Pancreas,[4]; 1 h p.i.,0.3 ± 0.1 % I.D./g
same,Biodistribution: Spleen,[4]; 1 h p.i.,0.3 ± 0.1 % I.D./g
same,Biodistribution: Stomach,[4]; 1 h p.i.,0.3 ± 0.2 % I.D./g
same,Excretion,[4]; 1 h p.i.,81.5 ± 5.1 % I.D.
same,Biodistribution: Kidney,"[4]; 1 h p.i., listed as [^111In]In-DOTAGA-Tz",3.6 ± 1 % I.D./g
O=C([O-])CN1CCN(CC(=O)[O-])CCN(CC(=O)NCCOCCOCCOCCOCCOCCOCCOCCOCCOCCOCCOCCNC(=O)CCCC(=O)NCc2ccc(-c3nncnn3)cc2)CCN(CC(=O)[O-])CC1.[111In+3] [[111In]In-DOTA-PEG-Tz],in vivo stability / metabolization (urine HPLC),[2],overall low degree of metabolization
same,Biodistribution: Blood,[4]; 15 min p.i.,3.1 ± 0.4 % I.D./g
same,Biodistribution: Bone,[4]; 15 min p.i.,0.78 ± 0.08 % I.D./g
same,Biodistribution: Heart,[4]; 15 min p.i.,1.0 ± 0.2 % I.D./g
same,Biodistribution: Intestine,[4]; 15 min p.i.,0.32 ± 0.05 % I.D./g
same,Biodistribution: Kidney,[4]; 15 min p.i.,5.8 ± 1.3 % I.D./g
same,Biodistribution: Liver,[4]; 15 min p.i.,1.1 ± 0.2 % I.D./g
same,Biodistribution: Lung,[4]; 15 min p.i.,1.6 ± 0.3 % I.D./g
same,Biodistribution: Muscle,[4]; 15 min p.i.,0.9 ± 0.2 % I.D./g
same,Biodistribution: Pancreas,[4]; 15 min p.i.,0.53 ± 0.07 % I.D./g
same,Biodistribution: Spleen,[4]; 15 min p.i.,0.66 ± 0.28 % I.D./g
same,Biodistribution: Stomach,[4]; 15 min p.i.,0.5 ± 0.3 % I.D./g
same,Excretion,[4]; 15 min p.i.,65.3 ± 5.4 % I.D.
same,Biodistribution: Blood,[4]; 1 h p.i.,0.44 ± 0.07 % I.D./g
same,Biodistribution: Bone,[4]; 1 h p.i.,0.11 ± 0.01 % I.D./g
same,Biodistribution: Heart,[4]; 1 h p.i.,0.15 ± 0.08 % I.D./g
same,Biodistribution: Intestine,[4]; 1 h p.i.,0.05 ± 0.01 % I.D./g
same,Biodistribution: Kidney,[4]; 1 h p.i.,1.9 ± 0.3 % I.D./g
same,Biodistribution: Liver,[4]; 1 h p.i.,0.70 ± 0.30 % I.D./g
same,Biodistribution: Lung,[4]; 1 h p.i.,0.36 ± 0.04 % I.D./g
same,Biodistribution: Muscle,[4]; 1 h p.i.,0.10 ± 0.02 % I.D./g
same,Biodistribution: Pancreas,[4]; 1 h p.i.,0.09 ± 0.01 % I.D./g
same,Biodistribution: Spleen,[4]; 1 h p.i.,0.18 ± 0.04 % I.D./g
same,Biodistribution: Stomach,[4]; 1 h p.i.,0.09 ± 0.02 % I.D./g
same,Excretion,[4]; 1 h p.i.,93.6 ± 0.8 % I.D.
same,Excretion,"[4]; 1 h p.i., listed as [^111In]In-DOTA-PEG-Tz",above 90 % I.D.
